These results are taken from PMC3283556, “The Activities of Current Antimalarial Drugs on the Life Cycle Stages of Plasmodium: A Comparative Study with Human and Rodent Parasites” (PLoS Medicine, 2012).

Series [1] relates to P. falciparum mature gametocytes / male gamete exflagellation. As to the kind of experiment: P. falciparum exflagellation assay. The format is cell-based, Plasmodium falciparum. Particulars: for effect on exflagellation (words): 10 µM, 24 h exposure of mature gametocytes.
For series [2], the system named is P. falciparum and P. vivax. Details: method as in personal communication, MMV. The settings on record: phase IIa, P. falciparum and P. vivax patients; ref personal communication, MMV; cited from earlier work.
For another series, the system named is Plasmodium oocysts. Description: Oocyst development / sporogony, Plasmodium species not stated at the place. It is filed as in vivo. The settings on record: for inhibition at 10 µM: Plasmodium, box linked to oocysts, read-out: Inhibition at 10 μM (oocysts, Figure 5); for effect on sporogony / oocyst production: species not given. The procedure: (§1) Membrane feeds were performed as described previously. Briefly, PbGFPcon-infected mouse blood was mixed with compounds, immediately placed into membrane feeders (39°C) and offered for 30 min to 80–100 overnight-starved A. stephensi (SDA 500 strain). After 7–9 d at 19°C/80%RH, mosquito midguts were dissected out. Midguts were fixed with paraformaldehyde and oocyst number was determined microscopically by semi-automated analysis as previously described.
Gametocyte cultures were produced according to the same protocol as the Pf exflagellation assay. Pooled gametocyte cultures were evenly divided between compounds in fresh medium and incubated at 37°C for 24 h. The parasite pellets were then resuspended in fresh RBCs and human serum treated with the compounds to a 50% haematocrit and immediately fed to mosquitoes as described above and then maintained at 27°C/60%RH for 10–12 d before dissection and counting. […]

Series [3] concerns P. berghei ookinete formation. Description: P. berghei ookinete development assay. Particulars: 10 µM. The format is cell-based, Plasmodium berghei. Here is the method:
Compounds and P. berghei gametocyte-infected blood were dispensed in a 96-well plate containing ookinete medium. After 24 h at 19°C, Giemsa-stained ookinetes were counted under the microscope (×40) as previously described,[28].
(§2) Figure 3 The transmission-blocking potential of selected antimalarials in three bioassays that cover different phases of Plasmodium vector stage development. (A) Assays examined exflagellation (P. falciparum), ookinete formation (P. berghei), or oocyst formation (P. falciparum). All antimalarials were screened at 10 µM. (B) The biological content of the in vitro P. berghei ookinete assay spans gamete formation, fertilization, zygote development, and ookinete formation. Ookinete formation was insensitive to most of the antimalarials tested. […] (D) The in vitro P. falciparum exflagellation assay exposes mature gametocytes to antimalarials for 24 h before triggering exflagellation. […] All experiments in triplicate. (E) The in vivo P. falciparum oocyst assay differs from the P. berghei oocyst assay in that mature gametocytes were exposed to the antimalarials in culture for 24 h before feeding to mosquitoes. […] NPC1161-B, lumefantrine, halofantrine, and mefloquine +RS isomer were also active. (n = 4–61 observations; average ± standard error of the mean [SEM]).

Series [4] deals with P. berghei oocyst formation. Description: Standard membrane feed assay, P. berghei oocysts in A. stephensi. The format is in vivo, Plasmodium berghei. Particulars: for transmission-blocking effect on P. berghei oocysts (words): 10 µM. The procedure: as §1
Supplementary file pmed.1001169.s001.tif: Figure S1 The transmission-blocking potential of selected compounds against P. berghei in standard membrane feeding assays. All antimalarials were screened at 10 µM in triplicate in independent experiments. The biological content of this assay spans gamete formation through to occyst development all within the gut of the mosquito. […] (TIF) Click here for additional data file.

In series [5] the test system is P. falciparum oocyst formation. Description: Standard membrane feed assay, P. falciparum oocysts in A. stephensi. It is filed as in vivo, Plasmodium falciparum. Particulars: 10 µM, gametocytes exposed 24 h before feeding. Here is the method:
Gametocyte cultures were produced according to the same protocol as the Pf exflagellation assay. Pooled gametocyte cultures were evenly divided between compounds in fresh medium and incubated at 37°C for 24 h. The parasite pellets were then resuspended in fresh RBCs and human serum treated with the compounds to a 50% haematocrit and immediately fed to mosquitoes as described above and then maintained at 27°C/60%RH for 10–12 d before dissection and counting.
as §2

Details of series [6]: method as in PMID 22759078, PMID 17053895, PMID 18694333, PMID 18840754, PMID 19776738. The settings on record: human blood, therapeutic / relevant doses; cited from earlier work.
Series [7] concerns P. falciparum asexual blood stage parasites (strains NF54, D6, K1, W2, 7G8, TM90C2A, V1/S). As to the kind of experiment: [3H]-hypoxanthine incorporation growth inhibition assay, asexual blood stage. The format is cell-based, Plasmodium falciparum. The settings on record: Plasmodium falciparum.

“Also recorded” adds a separate entry of the source. Bounds are passed on as bounds.

Take `c1cc([C@H]2CC[C@]3(CC2)OO[C@]2(O3)C3CC4CC(C3)CC2C4)ccc1OCCN1CCOCC1` [OZ439]: the “effect on exflagellation (words)” value in series [1] was “strong inhibitors of gametocyte maturation/gamete formation”. Further, the inhibition at 10 µM in series [1] (Plasmodium falciparum, 10 μM, box linked to gametocytes/exflagellation, read-out: Inhibition at 10 μM (gametocytes/exflagellation, Figure 5)) is > 60%; in the series on Plasmodium oocysts, > 90%. Moreover, the “clinical efficacy” value in series [2] is “equivalent efficacy in the treatment of P. falciparum and P. vivax patients”. Moreover, the “effect on sporogony / oocyst production” value in the series on Plasmodium oocysts is on record as “impact sporogony”.

As usually defined, the Cmax is the highest concentration seen after dosing. In general, IC50 refers to the midpoint of a concentration-inhibition curve. Low readings indicate greater potency, high ones weaker potency. In the case of `CCCCN(CCCC)CC(O)c1cc(Cl)cc2c1-c1ccc(Cl)cc1/C2=C/c1ccc(Cl)cc1` (centres unmarked) [lumefantrine], the “effect on ookinete formation” value in series [3] is reported as “little activity”. Moreover, the “transmission-blocking effect on P. berghei oocysts (words)” value is on record as “impaired sporogony; also recorded: most notable transmission-blocking activity” in series [4] and “showed activity” in series [4] (listed as Lumefantrine). Moreover, the inhibition at 10 µM (in series [4] (Plasmodium berghei); with Plasmodium oocysts) was > 90% in each case. Besides, the “effect on exflagellation (words)” value in series [1] was “only moderate or no inhibition of exflagellation”; in series [1] (listed as Lumefantrine), “little activity”. The entries for the “transmission-blocking effect on P. falciparum oocysts (words)” value in series [5] and in series [5] (listed as Lumefantrine) were “active; also recorded: impaired sporogony” and “showed activity”, respectively. Besides, the Cmax in series [6] is 13.9 µM. Also, the half-maximal inhibitory concentration (IC50) in series [7] was < 4 nM. Besides, in the series with Plasmodium oocysts, the “effect on sporogony / oocyst production” value is reported as “impairs development in the vector”.
